Test results published in patent US20250179047A1, “5-[7-(3,4-DIHYDRO-1H-ISOQUINOLINE-2-CARBONYL)-1,2,3,4 TETRAHYDROISOQUINOLIN-6-YL]-1H-PYRROLE-3-CARBOXAMIDE DERIVATIVES, PHARMACEUTICAL COMPOSITIONS CONTAINING THEM AND THEIR USES AS PRO-APOPTOTIC AGENTS” (LES LABORATOIRES SERVIER, priority 2022, published 2025).

Legend:
[1] = biological target: CYP3A4 (Homo sapiens (Human), UniProt P08684); assay: CYP3A4 inhibition determination in hepatic human microsomes; type: in vitro ADME; details: LC/MS-MS of specific metabolite
Sequence of CYP3A4 (P08684 whole entry): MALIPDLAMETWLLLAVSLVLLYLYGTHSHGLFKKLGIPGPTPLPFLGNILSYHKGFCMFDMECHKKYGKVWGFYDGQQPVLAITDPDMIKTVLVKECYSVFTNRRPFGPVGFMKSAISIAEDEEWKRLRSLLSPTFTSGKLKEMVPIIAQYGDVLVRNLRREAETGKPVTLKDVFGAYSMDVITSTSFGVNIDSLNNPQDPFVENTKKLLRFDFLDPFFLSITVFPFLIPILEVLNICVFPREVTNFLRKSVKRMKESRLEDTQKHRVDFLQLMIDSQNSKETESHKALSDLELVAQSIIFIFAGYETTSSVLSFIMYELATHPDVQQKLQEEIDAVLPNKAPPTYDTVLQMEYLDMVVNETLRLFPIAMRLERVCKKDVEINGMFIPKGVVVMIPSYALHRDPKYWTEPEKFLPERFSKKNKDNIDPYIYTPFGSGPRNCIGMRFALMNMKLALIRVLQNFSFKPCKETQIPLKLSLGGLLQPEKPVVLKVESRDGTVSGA
Experimental: The inhibitory potential was determined on CYP3 Å4 enzyme using hepatic human microsomes. A range of concentrations (adapted based on the solubility) of the tested compound were incubated in presence of a substrate having a specific metabolite of CYP3 Å4 enzyme.
Then, the formation of the metabolite was quantified using LC/MS-MS analysis and a curve corresponding to the concentration of the metabolite in function of the concentration of the test compound allowed to the calculation of the IC50 value.

[2] = system: platelets; assay: Platelet depletion in SCID mice; type: in vivo; details: 25 mg/kg IV bolus, vs control group; for Platelet loss (%) 6 h: 6 h after dosing; for Platelet loss (%) 24 h: 24 h after dosing
In short: (§1)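 SCID mice received 25 mg/kg IV bolus in PEG/ethanol/0.9% NaCl (40/10/50). […] sampled 0.05–24 h for LC-MS/MS, with Cinf and AUC24 from non-compartmental analysis. Platelet counts by hematology analyzer at 6 h and 24 h, given as % loss versus a 6-animal control group.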

[3] = system: KMS12PE Bcl2 V156D; assay: In vitro cytotoxicity CellTiterGlo 72 h, KMS12PE Bcl2 V156D; type: cell-based; details: Homo sapiens, KMS-12-PE, read-out: C50 nM, KMS12PE Bcl2 V156D
Experimental: (§2) KMS-12-PE (ACC 606) were purchased from the Leibniz-Institute DSMZ (Braunschweig, Germany) and were grown at 37° C. in a humidified atmosphere with 5% CO2 in media recommended by the suppliers. Lentiviral particles containing Bcl-2 wild type (also named “Bcl2 WT”), Bcl-2 mutated on G101V (also named “Bcl2 G101V”), Bcl-2 mutated on D103Y (also named “Bcl2 D103Y”), Bcl-2 mutated on D103V (also named “Bcl2 D103V”), Bcl-2 mutated on D103E (also named “Bcl2 D103E”), Bcl-2 mutated on F104I (also named “Bcl2 F104I”), Bcl-2 mutated on F104L (also named “Bcl2 F104L”), Bcl-2 mutated on D111A (also named “Bcl2 D111A”), Bcl-2 mutated on A113G (also named “Bcl2 A113G”), Bcl-2 mutated on R129L (also named “Bcl2 R129L”), Bcl-2 mutated on V156D (also named “Bcl2 V156D”) were cloned into pcLV-CMV-DEST-IRES-TagRFP. Lentiviral particles (1×10^6) were mixed with Polybrene at 8 μg/ml and transduced by spinoculation for 1 h at 32° C. and incubated overnight. After 8 days, TagRFP positive-cells were sorted by FACS. BCL2 expression was monitored by immunoblotting using anti-Flag and anti-BCL2 antibodies. Cells were seeded into 96-wells plates and treated with 1:3.16 serial dilution of compounds (9 different concentrations). Cell viability was assessed using CellTiterGlo reagent following treatment for 72 h. Results were normalized to the viability of cells without compounds (control wells). The C50 values were calculated using nonlinear regression algorithms in XCell software.

[4] = Pharmacokinetics in SCID mice; type: in vivo; details: 25 mg/kg IV bolus; for PK parameters Cinf: concentration at the end of bolus administration; for AUC: mouse, blood, area under curve over 24 h, read-out: PK parameters AUC24
In short: as §1

[5] = system: KMS12PE Bcl2 A113G; assay: In vitro cytotoxicity CellTiterGlo 72 h, KMS12PE Bcl2 A113G; type: cell-based; details: Homo sapiens, KMS-12-PE, read-out: C50 nM, KMS12PE Bcl2 A113G
Experimental: as §2

[6] = biological target: BCL2 F104I (Homo sapiens, UniProt P10415, F104I); assay: TR-FRET competitive binding assay, BCL2 F104I; details: Ki determined from IC50, read-out: TR_FRET EKI_Bcl2 F104I
In short: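 Ki derived from IC50 (11-point dilution, 520/495 nm emission ratio) for displacing a fluorescein-labelled PUMA peptide (2 or 20 nM). Target was 0.5 nM E. coli-expressed Halo-tagged BCL2 (1-207) or BCLXL (2-196), terbium-labelled on Halo. Incubation 2 h at 23°C in pH 7.5 Hepes with 150 mM NaCl and 5% DMSO.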

IC50 [1] [nM]	Platelet loss (%) 6 h [2] [%]	Platelet loss (%) 24 h [2] [%]	PK parameters Cinf [4] [µM]	AUC [4] [µM·h]	Ki [6] [nM]	SMILES	IC50 [3] [nM]	IC50 [5] [nM]
	26.9	33.9	17.3	11.4	0.3	Cc1c(N(C(=O)c2cc(-c3cc4c(cc3C(=O)N3Cc5ccccc5C[C@H]3C)CN(C(=O)Cc3ccc(OCCN5CCSCC5)cc3)CC4)n(C)c2C)c2ccc(O)cc2)cc(C#N)n1C [Example 55, N-(5-cyano-1,2-dimethyl-1H-pyrrol-3-yl)-N-(4-hydroxyphenyl)-1,2-dimethyl-5-{7-[(3R)-3-methyl-1,2,3,4-tetrahydroisoquinoline-2-carbonyl]-2-(2-{4-[2-(thiomorpholin-4-yl)ethoxy]phenyl}acetyl)-1,2,3,4-tetrahydroisoquinolin-6-yl}-1H-pyrrole-3-carboxamide]	14.9	5.53
> 5000					0.47	Cc1c(C(=O)N(c2ccc(O)cc2)c2cc(C#N)n(C(F)F)c2C)cc(-c2cc3c(cc2C(=O)N2Cc4ccccc4C[C@H]2CN2CCCCC2)CN(C(=O)Cc2ccc(OCCN4CCOCC4)cc2)CC3)n1C [Example 77]	19.1	7.86
> 5000					0.43	Cc1c(C(=O)N(c2ccc(O)cc2)c2cc(C#N)n(C(F)F)c2C)cc(-c2cc3c(cc2C(=O)N2Cc4ccccc4C[C@H]2CN2CCCCC2)CN(C(=O)Cc2ccc(OCCN4CCOCC4)cc2F)CC3)n1C [Example 78, N-[5-cyano-1-(difluoromethyl)-2-methylpyrrol-3-yl]-5-[2-(2-{2-fluoro-4-[2-(morpholin-4-yl)ethoxy]phenyl}acetyl)-7-{[(3S)-3-(piperidin-1-ylmethyl)-3,4-dihydro-1H-isoquinolin-2-yl]carbonyl}-3,4-dihydro-1H-isoquinolin-6-yl]-N-(4-hydroxyphenyl)-1,2-dimethylpyrrole-3-carboxamide]	5.88	2.11

Second part, the compound before the results:

SMILES	IC50 [1] [nM]	Platelet loss (%) 6 h [2] [%]	Platelet loss (%) 24 h [2] [%]	PK parameters Cinf [4] [µM]	AUC [4] [µM·h]	Ki [6] [nM]	IC50 [3] [nM]	IC50 [5] [nM]
Cc1c(N(C(=O)c2cc(-c3cc4c(cc3C(=O)N3Cc5ccccc5C[C@H]3C)CN(C(=O)Cc3ccc(OCCN5CCOCC5)cc3)CC4)n(C)c2C)c2ccc(O)cc2)cc(C#N)n1C [Example 21, N-(5-cyano-1,2-dimethyl-1H-pyrrol-3-yl)-N-(4-hydroxyphenyl)-1,2-dimethyl-5-{7-[(3R)-3-methyl-1,2,3,4-tetrahydroisoquinoline-2-carbonyl]-2-(2-{4-[2-(morpholin-4-yl)ethoxy]phenyl}acetyl)-1,2,3,4-tetrahydroisoquinolin-6-yl}-1H-pyrrole-3-carboxamide]	6200	58.4	30.3	21.0	12	0.29	9.77	4.06
Cc1c(N(C(=O)c2cc(-c3cc4c(cc3C(=O)N3Cc5ccccc5C[C@H]3C)CN(C(=O)Cc3ccc(N5CCN6CCOC[C@@H]6C5)cc3F)CC4)n(C)c2C)c2ccc(O)cc2)cc(C#N)n1C [Example 45, 5-[2-(2-{4-[(9aS)-octahydropyrazino[2,1-c][1,4]oxazin-8-yl]-2-fluorophenyl}acetyl)-7-[(3R)-3-methyl-1,2,3,4-tetrahydroisoquinoline-2-carbonyl]-1,2,3,4-tetrahydroisoquinolin-6-yl]-N-(5-cyano-1,2-dimethyl-1H-pyrrol-3-yl)-N-(4-hydroxyphenyl)-1,2-dimethyl-1H-pyrrole-3-carboxamide]		22.0	27.6	40.8	34.2	1.65	0.96	8.03
COC[C@@H]1Cc2ccccc2CN1C(=O)c1cc2c(cc1-c1cc(C(=O)N(c3ccc(O)cc3)c3cc(C#N)n(C)c3C)c(C)n1C)CCN(C(=O)Cc1ccc(OCCC3CCOCC3)cc1F)C2 [Example 52, N-(5-cyano-1,2-dimethylpyrrol-3-yl)-5-[2-(2-{2-fluoro-4-[2-(oxan-4-yl)ethoxy]phenyl}acetyl)-7-{[(3S)-3-(methoxymethyl)-3,4-dihydro-1H-isoquinolin-2-yl]carbonyl}-3,4-dihydro-1H-isoquinolin-6-yl]-N-(4-hydroxyphenyl)-1,2-dimethylpyrrole-3-carboxamide]		34.3	33.0	18.0	33.7	0.77	10.6	3.99
